“And” between values parts separate entries of the source, which are not always exact repeats. Identical values can stand only once. “Also recorded” adds a separate entry of the source.
Experiments:
HCT 116 cells = experiment: Cell proliferation (cell counts); format: cell-based, Human; details: incubated with 5-Aza, most noticeable after 2-days
Experimental: (§1) Human colorectal cancer (CRC) cell lines, MIP 101, RKO, HCT116 and HT29 (ATCC), and a normal colon cell line CCD 112CON (ATCC), were maintained in DMEM supplemented with 10% fetal bovine serum; 1% Kanamycin, Streptomycin, Penicillin; and incubated at 37° C. and 5% CO2. To determine the effect of reversing the methylation status of SPARC, a demethylating agent (5-Aza-2′deoxycytidine, “5-Aza”) was added to the culture media at a final concentration of 4 μm for a period of 7 days with medium changes on day 4, before assessing its effect on cell viability (WST-1), apoptosis (Caspase 3/7 and TUNEL) and cell proliferation.
(§2) To determine the rate of cell proliferation, cells exposed to 5-Aza for 7 days (and untreated controls) were seeded at 20,000 cells/well into a 48-well plate. Cells were counted from duplicate wells at 24, 48 and 72 h. The effect of 5-FU exposure for 24 hour-period on cell proliferation in the presence or absence of 5-Aza was also determined. We performed two independent experiments.

HT29 cells = experiment: Cell proliferation (cell counts); format: cell-based, Human; details: incubated with 5-Aza, most noticeable after 2-days
Experimental: as §1, §2

MIP101 cells = experiment: Cell proliferation (cell counts); format: cell-based, Human
Experimental: as §1, §2

RKO cells = experiment: Cell proliferation (cell counts); format: cell-based, Human
Experimental: as §1, §2

SPARC promoter = experiment: Methylation specific PCR of CRC cell lines; format: cell-based, Human; details: 4 μM 5-Aza, 7 days in vitro; all four CRC cell lines (MIP101, RKO, HCT116, HT29)
Experimental: as §1
This technique is based on bisulfite treatment of the DNA, which modifies cytosines to uracil except when they are methylated (5-methylcytosine), followed by PCR. After bisulfite modification the DNA was amplified using methylation specific primers. Two primer sets, previously described, were used to target the CpG island located in the putative promoter region of the SPARC gene, and are referred as MSP1 and MSP2. Primers targeting INK4A(p16) were used as control. […] For RT-PCR, mRNA isolated from CRC cell lines were extracted using Trizol (Invitrogen). […]

INK4A(p16) promoter = experiment: Methylation specific PCR of CRC cell lines (control promoter); format: cell-based, Human; details: 4 μM 5-Aza, 7 days in vitro; all four CRC cell lines
[1] = target: T1, interaction between Dnmtl and the SPARC promoter (Homo sapiens, UniProt P26358); experiment: Chromatin immunoprecipitation (ChIP) assay; format: cell-based; details: all CRC cell lines, following exposure to 5-Aza
T1 construct: endogenous in cells
T1 sequence (P26358 whole entry): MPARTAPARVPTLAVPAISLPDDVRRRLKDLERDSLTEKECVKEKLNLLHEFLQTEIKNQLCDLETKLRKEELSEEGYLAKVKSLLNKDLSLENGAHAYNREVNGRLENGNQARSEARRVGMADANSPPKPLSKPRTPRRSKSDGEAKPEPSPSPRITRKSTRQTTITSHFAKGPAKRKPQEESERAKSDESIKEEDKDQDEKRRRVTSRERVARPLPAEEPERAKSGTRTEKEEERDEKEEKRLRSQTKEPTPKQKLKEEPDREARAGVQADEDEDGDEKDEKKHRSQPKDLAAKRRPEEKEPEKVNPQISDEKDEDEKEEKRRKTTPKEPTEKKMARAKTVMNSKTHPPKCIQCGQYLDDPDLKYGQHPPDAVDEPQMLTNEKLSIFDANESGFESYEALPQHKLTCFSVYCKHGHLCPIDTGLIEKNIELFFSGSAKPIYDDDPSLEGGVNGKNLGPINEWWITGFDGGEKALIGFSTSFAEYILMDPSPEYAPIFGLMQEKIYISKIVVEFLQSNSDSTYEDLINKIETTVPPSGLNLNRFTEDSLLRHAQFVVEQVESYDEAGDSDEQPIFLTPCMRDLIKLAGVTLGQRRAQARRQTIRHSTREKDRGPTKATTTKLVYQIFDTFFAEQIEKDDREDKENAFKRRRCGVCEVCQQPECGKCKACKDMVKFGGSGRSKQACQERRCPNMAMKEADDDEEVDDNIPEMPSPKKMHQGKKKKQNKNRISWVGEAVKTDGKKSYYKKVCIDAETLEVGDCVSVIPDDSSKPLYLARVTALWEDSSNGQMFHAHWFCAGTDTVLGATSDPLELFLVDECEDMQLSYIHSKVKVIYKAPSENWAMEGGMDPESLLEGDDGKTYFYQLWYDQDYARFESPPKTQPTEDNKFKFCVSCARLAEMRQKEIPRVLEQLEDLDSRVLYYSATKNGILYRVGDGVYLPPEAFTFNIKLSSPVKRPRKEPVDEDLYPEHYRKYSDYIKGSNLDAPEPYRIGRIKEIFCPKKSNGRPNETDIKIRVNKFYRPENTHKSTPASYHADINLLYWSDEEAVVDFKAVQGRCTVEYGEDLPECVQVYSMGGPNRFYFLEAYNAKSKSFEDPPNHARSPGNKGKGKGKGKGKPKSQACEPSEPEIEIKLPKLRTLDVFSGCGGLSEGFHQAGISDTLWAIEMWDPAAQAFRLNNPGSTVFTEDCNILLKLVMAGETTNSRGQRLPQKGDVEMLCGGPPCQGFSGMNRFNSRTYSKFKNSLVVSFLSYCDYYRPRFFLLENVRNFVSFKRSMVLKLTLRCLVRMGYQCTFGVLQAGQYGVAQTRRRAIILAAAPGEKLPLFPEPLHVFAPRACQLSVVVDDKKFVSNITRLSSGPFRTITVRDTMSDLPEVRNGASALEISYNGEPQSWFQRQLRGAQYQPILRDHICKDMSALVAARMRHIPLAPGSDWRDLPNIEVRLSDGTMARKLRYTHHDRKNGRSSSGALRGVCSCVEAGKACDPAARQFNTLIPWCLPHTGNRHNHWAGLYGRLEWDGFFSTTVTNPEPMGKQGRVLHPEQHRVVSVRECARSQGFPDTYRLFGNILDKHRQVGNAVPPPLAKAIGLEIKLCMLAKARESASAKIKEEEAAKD
Experimental: To evaluate the effect of 5-Aza exposure on the interaction between Dnmtl (a DNA methyltranferase) with the promoter region of SPARC, a ChIP assay was performed using a ChIP kit (Epigentek) as per the manufacturer's instructions. Cells were fixed with formaldehyde for protein/DNA crosslinking and lysed. The DNA was sheared by sonication (10 pulses, […]) and added to a well coated with the antibody to the protein of interest (anti-Dnmtl, cat. #A-1001, Epigentek). Washes were performed to remove unbound material, while Dnmtl-bound DNA was released by protein digestion with proteinase K. The DNA was purified through a column and PCR was performed using primers designed to target the SPARC promoter region.

SPARC [2] = experiment: RT-PCR of SPARC mRNA; format: cell-based, Human; details: MIP101 cells exposed to 5-Aza
Text: This technique is based on bisulfite treatment of the DNA, which modifies cytosines to uracil except when they are methylated (5-methylcytosine), followed by PCR. After bisulfite modification the DNA was amplified using methylation specific primers. Two primer sets, previously described, were used to target the CpG island located in the putative promoter region of the SPARC gene, and are referred as MSP1 and MSP2. Primers targeting INK4A(p16) were used as control. […] For RT-PCR, mRNA isolated from CRC cell lines were extracted using Trizol (Invitrogen). Primers to amplify SPARC, sense 5′-GGGAGGGCCTTGGCAG-3′ antisense 5′-GCACATGGGGGTGTTG-3′ and actin, sense 5′-GCCACGGCTGCTTCCAG-3′antisense 5′-GGCGTACAGGTCTTTGC-3′ were annealed at 49° C. in 45 cycles after reverse transcription for 1 hour at 50° C. Amplicons were separated in 2.5% agarose gel electrophoresis.

SPARC [3] = experiment: Western blot of SPARC protein; format: cell-based, Human; details: MIP101 cells (printed MW101) exposed to 5-Aza
MIP 101 cells = experiment: Cell viability (WST-1); format: cell-based; details: 24 h, read-out: viable cells
Experimental: as §1
Cell viability was evaluated using WST-1 (Roche) following the manufacturer's instructions. Cells exposed to 5-Aza for a period of 7 days (and untreated controls) were seeded at 10,000 cells per well in triplicate into a 96-well plate. Twelve hours later, 5-Fluorouracil (5-FU) was added to a final concentration of 0, 500 or 1,000 μM for an additional 24 h. WST reagent was added to each well and incubated at 37° C. after which plates were read at 60 min at 440 nm. Three independent experiments were analyzed. The significance of differences were determined using Student's t-test (P<0.05).

SMILES | cell proliferation (HCT 116 cells) | cell proliferation (HT29 cells) | increase in cell doubling time (MIP101 cells; 4 μM 5-Aza vs control) [fold] | doubling time (MIP101 cells; incubation with 4 μM 5-Aza (control 0.8 days)) [days] | increase in cell doubling time (RKO cells; 4 μM 5-Aza vs control) | doubling time (RKO cells; incubation with 4 μM 5-Aza (control 0.7 days)) [days] | methylation status in the MSP1 and MSP2 regions of the SPARC promoter (SPARC promoter) | methylation status of the INK4A(p16) promoter (INK4A(p16) promoter) | interaction between the SPARC promoter and Dnmtl (ChIP) [1] | SPARC RNA expression (RT-PCR) (SPARC [2]) | SPARC protein expression (Western blot) (SPARC [3]) | viability at 500 µM (MIP 101 cells; Homo sapiens, 500 μM 5-FU only) [%] | viability at 1000 µM (MIP 101 cells; Homo sapiens, 1,000 μM 5-FU only) [%]
Nc1ncn([C@H]2C[C@H](O)[C@@H](CO)O2)c(=O)n1 [5-Aza, 5-Aza-2′deoxycytidine] | less dramatic yet significant decrease in cell proliferation | less dramatic yet significant decrease in cell proliferation | 3 | 2.4 | 2.4 fold and 2.43 fold | 1.7 | change in the methylation status | change in the methylation status | no longer observed | higher SPARC expression; also recorded: reactivation of SPARC RNA and protein expression | reactivation of SPARC RNA and protein expression | – | –
O=c1[nH]cc(F)c(=O)[nH]1 [5-FU, 5-Fluorouracil] | – | – | – | – | – | – | – | – | – | – | – | 87.7 | 82.7

From US20100286058A1, “Assessing Chemotherapy Resistance of Colorectal Tumors by Determining Sparc Hypermethylation” (priority 2007, published 2010)
